Experimental findings from article PMC11802738 (Nature Communications, 2025) are described below.

In experiment [1] the target is T1, RgNanH (GRAB-Sia3 = RgNanH D282A) (Mediterraneibacter gnavus, UniProt A7B557, D282A).
T1 sequence (A7B557 243-723 D282A): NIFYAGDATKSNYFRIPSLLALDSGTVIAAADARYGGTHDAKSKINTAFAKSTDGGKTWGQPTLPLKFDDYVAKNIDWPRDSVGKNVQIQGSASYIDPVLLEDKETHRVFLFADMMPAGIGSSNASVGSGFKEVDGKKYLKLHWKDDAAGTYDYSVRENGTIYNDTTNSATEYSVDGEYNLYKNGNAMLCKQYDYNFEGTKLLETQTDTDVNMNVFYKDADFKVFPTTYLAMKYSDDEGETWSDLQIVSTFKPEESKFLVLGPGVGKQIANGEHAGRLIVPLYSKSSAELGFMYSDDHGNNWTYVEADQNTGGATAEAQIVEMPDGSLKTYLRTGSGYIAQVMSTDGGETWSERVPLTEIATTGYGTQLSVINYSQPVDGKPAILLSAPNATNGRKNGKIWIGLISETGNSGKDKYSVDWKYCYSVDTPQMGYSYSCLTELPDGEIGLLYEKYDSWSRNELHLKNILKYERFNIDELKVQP
The experiment can be described thus: isothermal titration calorimetry. Format: binding. Particulars: PBS; 50 μM protein in cell, 1 mM ligand in syringe; monomeric GRAB-Sia3.

Experiment [2] addresses SpNanA (GRAB-Sia = SpNanA D372N) (Streptococcus pneumoniae, UniProt P62576, D372N). Conditions: PBS; 50 μM protein in cell, 1 mM ligand in syringe; monomeric GRAB-Sia.

The structures appear in SMILES notation. pKd: −log10 of the molar value.

The term pKd denotes the Kd on a negative log10 scale, so that one unit is a factor of ten. Low readings indicate a high Kd, high ones a low Kd. With `CC(=O)N[C@H]1[C@H]([C@H](O)[C@H](O)CO)O[C@@](O[C@H]2[C@@H](O)[C@@H](CO)O[C@@H](O[C@H]3[C@H](O)[C@@H](O)C(O)O[C@@H]3CO)[C@@H]2O)(C(=O)O)C[C@@H]1O` (stereo partly drawn) [3′SL], the pKd in experiment [1] is 5.15; in experiment [2] it was 4.75.
As for `CC(=O)N[C@H]1[C@H]([C@H](O)[C@H](O)CO)O[C@@](OC[C@H]2O[C@@H](O[C@H]3[C@H](O)[C@@H](O)C(O)O[C@@H]3CO)[C@H](O)[C@@H](O)[C@H]2O)(C(=O)O)C[C@@H]1O` (stereo partly drawn) [6′SL], the pKd in experiment [2] was 4.72.
